Assay results: the supplement of paper PMC10733146

Legend:
Assay in all cases: viability relative to DMSO control (fraction); higher = less drug effect (more viable cells)
Settings in all cases: 48 h
[1] = test system: primary AML patient cells (S002)
How it was run: (§1)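 Primary mononuclear tumour cells (Ficoll-isolated from blood or bone marrow, or processed lymph node; fresh or cryopreserved) were plated at 4 × 10^4 cells per well in 384-well plates with pre-plated compounds at five concentrations, one well each. Medium was RPMI-1640 with penicillin/streptomycin, L-glutamine and human serum, at 37 °C and 5% CO2 for 48 h. Viability was read as CellTiter-Glo luminescence relative to the median of 16 inner DMSO wells.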

[2] = test system: primary AML patient cells (S009)
How it was run: as §1

[3] = test system: primary AML patient cells (S017)
How it was run: as §1

[4] = test system: primary AML patient cells (S021)
How it was run: as §1

[5] = test system: primary AML patient cells (S025)
How it was run: as §1

[6] = test system: primary AML patient cells (S037)
How it was run: as §1

[7] = test system: primary AML patient cells (S055)
How it was run: as §1

[8] = test system: primary AML patient cells (S060)
How it was run: as §1

[9] = test system: primary AML patient cells (S071)
How it was run: as §1

[10] = test system: primary AML patient cells (S072)
How it was run: as §1

[11] = test system: primary AML patient cells (S081)
How it was run: as §1

[12] = test system: primary AML patient cells (S089)
How it was run: as §1

[13] = test system: primary AML patient cells (S091)
How it was run: as §1

[14] = test system: primary B-PLL patient cells (S016)
How it was run: as §1

[15] = test system: primary BL patient cells (S005)
How it was run: as §1

[16] = test system: primary CLL patient cells (S043)
How it was run: as §1

[17] = test system: primary DLBCL patient cells (S082)
How it was run: as §1

[18] = test system: primary MCL patient cells (S053)
How it was run: as §1

[19] = test system: primary MCL patient cells (S068)
How it was run: as §1

[20] = test system: primary T-PLL patient cells (S008)
How it was run: as §1

## CC(C)C[C@H](NC(=O)CNC(=O)c1cc(Cl)ccc1Cl)B(O)O [Ixazomib]
[1]; 0.008 µM
  viability: 0.843
[1]; 0.04 µM
  viability: 0.979
[1]; 0.2 µM
  viability: 0.932
[1]; 1 µM
  viability: 0.972
[1]; 5 µM
  viability: 0.933
[2]; 0.008 µM
  viability: 1.09
[2]; 0.04 µM
  viability: 0.981
[2]; 0.2 µM
  viability: 1.08
[2]; 1 µM
  viability: 1.03
[2]; 5 µM
  viability: 1.09
[3]; 0.008 µM
  viability: 0.923
[3]; 0.04 µM
  viability: 0.963
[3]; 0.2 µM
  viability: 0.834
[3]; 1 µM
  viability: 0.942
[3]; 5 µM
  viability: 0.979
[4]; 0.008 µM
  viability: 0.927
[4]; 0.04 µM
  viability: 1
[4]; 0.2 µM
  viability: 0.983
[4]; 1 µM
  viability: 1.14
[4]; 5 µM
  viability: 1.09
[5]; 0.008 µM
  viability: 0.932
[5]; 0.04 µM
  viability: 0.95
[5]; 0.2 µM
  viability: 0.952
[5]; 1 µM
  viability: 1.02
[5]; 5 µM
  viability: 1.08
[6]; 0.008 µM
  viability: 0.982
[6]; 0.04 µM
  viability: 0.955
[6]; 0.2 µM
  viability: 0.939
[6]; 1 µM
  viability: 0.937
[6]; 5 µM
  viability: 0.955
[7]; 0.008 µM
  viability: 0.936
[7]; 0.04 µM
  viability: 0.984
[7]; 0.2 µM
  viability: 0.953
[7]; 1 µM
  viability: 0.992
[7]; 5 µM
  viability: 0.941
[8]; 0.008 µM
  viability: 1.03
[8]; 0.04 µM
  viability: 0.988
[8]; 0.2 µM
  viability: 1.03
[8]; 1 µM
  viability: 1.02
[8]; 5 µM
  viability: 1.01
[9]; 0.008 µM
  viability: 1.01
[9]; 0.04 µM
  viability: 0.972
[9]; 0.2 µM
  viability: 0.995
[9]; 1 µM
  viability: 0.98
[9]; 5 µM
  viability: 0.974
[10]; 0.008 µM
  viability: 1.09
[10]; 0.04 µM
  viability: 0.984
[10]; 0.2 µM
  viability: 0.838
[10]; 1 µM
  viability: 0.922
[10]; 5 µM
  viability: 0.934
[11]; 0.008 µM
  viability: 0.987
[11]; 0.04 µM
  viability: 0.96
[11]; 0.2 µM
  viability: 0.901
[11]; 1 µM
  viability: 0.95
[11]; 5 µM
  viability: 0.981
[12]; 0.008 µM
  viability: 1.07
[12]; 0.04 µM
  viability: 0.69
[12]; 0.2 µM
  viability: 0.968
[12]; 1 µM
  viability: 0.583
[12]; 5 µM
  viability: 0.627
[13]; 0.008 µM
  viability: 1.07
[13]; 0.04 µM
  viability: 0.874
[13]; 0.2 µM
  viability: 1.13
[13]; 1 µM
  viability: 0.811
[13]; 5 µM
  viability: 0.8
[14]; 0.008 µM
  viability: 0.929
[14]; 0.04 µM
  viability: 0.946
[14]; 0.2 µM
  viability: 0.987
[14]; 1 µM
  viability: 1
[14]; 5 µM
  viability: 0.913
[15]; 0.008 µM
  viability: 1.61
[15]; 0.04 µM
  viability: 0.944
[15]; 0.2 µM
  viability: 1.56
[15]; 1 µM
  viability: 0.939
[15]; 5 µM
  viability: 0.945
[16]; 0.008 µM
  viability: 0.915
[16]; 0.04 µM
  viability: 0.73
[16]; 0.2 µM
  viability: 0.987
[16]; 1 µM
  viability: 0.74
[16]; 5 µM
  viability: 0.781
[17]; 0.008 µM
  viability: 0.858
[17]; 0.04 µM
  viability: 0.964
[17]; 0.2 µM
  viability: 0.815
[17]; 1 µM
  viability: 1.06
[17]; 5 µM
  viability: 1.01
[18]; 0.008 µM
  viability: 0.872
[18]; 0.04 µM
  viability: 0.954
[18]; 0.2 µM
  viability: 0.945
[18]; 1 µM
  viability: 0.972
[18]; 5 µM
  viability: 0.883
[19]; 0.008 µM
  viability: 0.998
[19]; 0.04 µM
  viability: 0.9
[19]; 0.2 µM
  viability: 1.04
[19]; 1 µM
  viability: 1.04
[19]; 5 µM
  viability: 1.05
[20]; 0.008 µM
  viability: 0.924
[20]; 0.04 µM
  viability: 1.01
[20]; 0.2 µM
  viability: 1.09
[20]; 1 µM
  viability: 1.01
[20]; 5 µM
  viability: 0.961
